The text below walks through data of US10214518B2, “Pyrazolyl substituted carbonic acid derivatives as modulators of the prostacyclin (PGI2) receptor useful for the treatment of disorders related thereto” (Arena Pharmaceuticals, Inc., priority 2008, dated 2019).

Test [1] has as its system MCT-induced pulmonary arterial hypertension in rat. As to the kind of experiment: Rat monocrotaline (MCT) model of pulmonary arterial hypertension. As to conditions: 30 mg/kg oral gavage twice a day for 21 days; 60 mg/kg MCT s.c.; male Wistar rats; Day 22. The class given is in vivo. The protocol:
Example 4: Rat Model of Pulmonary Arterial Hypertension
Male Wistar rats (100-150 g at start of study) (Charles River Laboratories, Wilmington, Mass.) were housed two per cage and maintained in a humidity—(40-60%) and temperature—(68-72° F.) controlled facility on a 12 hr:12 hr light/dark cycle (lights on at 6:30 am) with free access to food (Harlan Teklad, Orange Calif., Rodent Diet 8604) and water. Rats were allowed one week of habituation to the animal facility before testing.
The rat monocrotaline (MCT) model is a standard and well-accepted model of pulmonary arterial hypertension. MCT induces acute pulmonary endothelial damage associated with pulmonary vascular inflammation. […]
Rats were randomly given a single subcutaneous injection of either 60 mg/kg MCT (Sigma, St. Louis, Mo.) or 0.9% saline (sham) and assigned to receive oral administration of 20% hydroxypropyl beta-cyclodextrin (vehicle) or test compound (30 mg/kg; FIGS. 1 and 2). […] Heart chamber weights were measured on Day 22. […] The ratio of right ventricular (RV) weight to left ventricle plus septum (LV+S) weight (this ratio is indicated as “RV/(LV+S)” in FIGS. 1 and 2) was calculated as an index of the hypertrophic response to the induced pulmonary arterial hypertension and, as such, as an index of a test compound's therapeutic efficacy for pulmonary arterial hypertension.

The target of test [2] is human prostacyclin (PGI2) receptor (Homo sapiens (Human), UniProt P43119). Kind of test: HTRF assay for direct cAMP measurement. The class given is cell-based. As to conditions: recombinant CHO-K1 cells stably transfected with human prostacyclin receptor; cAMP increase. The source says:
Example 2: Homogeneous Time-Resolved Fluorescence (HTRF®) Assay for Direct cAMP Measurement
Compounds were screened for agonists of the human prostacyclin (PGI2) receptor using the HTRF® assay for direct cAMP measurement (Gabriel et al., ASSAY and Drug Development Technologies, 1:291-303, 2003) and recombinant CHO-K1 cells stably transfected with human prostacyclin receptor. CHO-K1 cells were obtained from ATCC® (Manassas, Va.; Catalog # CCL-61). An agonist of the prostacyclin receptor was detected in HTRF® assay for direct cAMP measurement as a compound which increased cAMP concentration. HTRF® assay also was used to determine EC50 values for prostacyclin receptor agonists.
The HTRF® assay kit was purchased from Cisbio-US, Inc. (Bedford, Mass.; Catalog #62AM4PEC). The HTRF® assay supported by the kit is a competitive immunoassay between endogenous cAMP produced by the CHO-K1 cells and tracer cAMP labeled with the dye d2. The tracer binding is visualized by a monoclonal anti-cAMP antibody labeled with Cryptate. The specific signal (i.e., fluorescence resonance energy transfer, FRET) is inversely proportional to the concentration of unlabeled cAMP in the standard or sample.
The fluorescence ratio (665 nm/620 nm) of the standards (0.17 to 712 nM cAMP) included in the assay was calculated and used to generate a cAMP standard curve according to the kit manufacturer's instructions. The fluorescence ratio of the samples (test compound or compound buffer) was calculated and used to deduce respective cAMP concentrations by reference to the cAMP standard curve.
The HTRF® assay was carried out using a two-step protocol essentially according to the kit manufacturer's instructions, in 20 μL total volume per well in 384-well plate format (ProxiPlates; PerkinElmer, Fremont, Calif.; catalog #6008280). To each of the experimental wells was transferred 3000 recombinant CHO-K1 cells in 5 μL assay buffer (phosphate buffered saline containing calcium chloride and magnesium chloride (Invitrogen, Carlsbad, Calif.; catalog #14040) supplemented with IBMX (100 μM) and rolipram (10 μM) (phosphodiesterase inhibitors; Sigma-Aldrich, St. Louis, Mo.; catalog #15879 and catalog #R6520, respectively) and 0.1% bovine serum albumin (BSA) fraction V (Sigma-Aldrich; catalog # A3059)), followed by test compound in 5 μL assay buffer or 5 μL assay buffer. The plate was then incubated at room temperature for 1 h. […] The plate was then further incubated at room temperature for 1 h, after which the assay plate was read.
The HTRF® readout was accomplished using a PHERAstar (BMG LABTECH Inc., Durham, N.C.) or EnVision™ (PerkinElmer, Fremont Calif.) microplate reader.
A general note: In TR-FRET formats the signal depends on donor and acceptor labels being close together.

Test [3] relates to human platelet-rich plasma (PRP). As to the kind of experiment: Human platelet aggregation inhibition test (ADP-induced, PRP). The class given is cell-based. The note with it: inhibition of aggregation induced by 1x10^-5 M ADP in human PRP. On the procedure:
Example 3: Human Platelet Aggregation Inhibition Test
Blood collected from healthy human volunteers in aqueous trisodium citrate solution was centrifuged at 150 g for 15 min and the upper layer was recovered to obtain platelet-rich plasma (PRP). The residual blood was centrifuged at 3000 g for 10 min and the supernatant was collected as platelet-poor plasma (PPP). Platelet concentration in the PRP was determined using the Z series Beckman Coulter particle counter (Beckman, Fullerton, Calif.) and adjusted to 250,000 platelets/μL using PPP. 480 μL of PRP was pre-incubated at 37° C. and stirred at 1200 rpm with 10 μL aqueous test compound solution for 1 min prior to induction of aggregation by the addition of 10 μL of aqueous adenosine diphosphate (ADP) solution to adjust the final ADP concentration in the PRP to 1×10^−5 M. The maximal amplitude of aggregation response within 3 min was determined and measured in triplicate using the Chronolog model 490 aggregometer (Chrono-log Corp., Havertown, Pa.). Percent inhibition of aggregation was calculated from the maximum decrease in optical density of the control (addition of water in place of the test compound solution) sample and of the samples containing test compound. The test compound was added to adjust the final concentration to the range 10^−9 to 10^−4 M, and IC50 values were determined by inhibition percentage of aggregation at each concentration.

Chain of human prostacyclin (PGI2) receptor (P43119 whole entry): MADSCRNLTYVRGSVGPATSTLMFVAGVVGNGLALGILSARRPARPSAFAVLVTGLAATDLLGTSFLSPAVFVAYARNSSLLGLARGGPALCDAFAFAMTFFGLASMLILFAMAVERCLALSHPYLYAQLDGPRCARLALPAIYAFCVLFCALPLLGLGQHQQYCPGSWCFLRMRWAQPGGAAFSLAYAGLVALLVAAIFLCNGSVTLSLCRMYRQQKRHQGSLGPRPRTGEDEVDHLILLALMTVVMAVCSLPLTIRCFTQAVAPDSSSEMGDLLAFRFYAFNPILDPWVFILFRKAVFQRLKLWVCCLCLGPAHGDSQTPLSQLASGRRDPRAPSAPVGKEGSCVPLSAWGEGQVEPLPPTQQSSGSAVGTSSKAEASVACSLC

For the compound `COc1cccc(-c2c(-c3ccccc3)nn(C[C@H]3CC[C@@H](COCC(=O)O)CC3)c2C)c1` [Compound 14, 2-(((1s,4s)-4-((4-(3-Methoxyphenyl)-5-methyl-3-phenyl-1H-pyrazol-1-yl)methyl)cyclohexyl)methoxy)acetic Acid], in test [1], the “right ventricle hypertrophic response, RV/(LV+S)” value is “inhibited the hypertrophic response”. Same read-out and setting: the value for `COc1cccc(-c2c(-c3ccccc3)nn(C[C@H]3CC[C@@H](COCC(=O)O)CC3)c2SC)c1` [Compound 31, 2-(((1s,4s)-4-((4-(3-Methoxyphenyl)-5-(methylthio)-3-phenyl-1H-pyrazol-1-yl)methyl)cyclohexyl)methoxy)acetic Acid] was “inhibited the hypertrophic response”. On to `CCSc1c(-c2cccc(OC)c2F)c(-c2ccccc2)nn1C[C@H]1CC[C@@H](COCC(=O)O)CC1` [Compound 90, 2-(((1s,4s)-4-((5-(Ethylthio)-4-(2-fluoro-3-methoxyphenyl)-3-phenyl-1H-pyrazol-1-yl)methyl)cyclohexyl)methoxy)acetic Acid], for which, in test [2], the EC50 is 7 nM. In test [3], `CSc1c(-c2ccc(C)s2)c(-c2ccccc2)nn1C[C@H]1CC[C@@H](COCC(=O)O)CC1` [Compound 111, 2-(((1s,4s)-4-((5-(Methylthio)-4-(5-methylthiophen-2-yl)-3-phenyl-1H-pyrazol-1-yl)methyl)cyclohexyl)methoxy)acetic Acid] had a concentration for half-maximal inhibition (IC50) of 28 nM. Moreover, the EC50 in test [2] is 16 nM. `CSc1c(-c2cncc(F)c2)c(-c2ccccc2)nn1C[C@H]1CC[C@@H](COCC(=O)O)CC1` [Compound 135, 2-(((1s,4s)-4-((4-(5-Fluoropyridin-3-yl)-5-(methylthio)-3-phenyl-1H-pyrazol-1-yl)methyl)cyclohexyl)methoxy)acetic Acid] came in with an IC50 in test [3] of 220 nM. Compound `O=C(O)COC[C@H]1CC[C@@H](Cn2nc(-c3ccccc3)c(-c3ccccc3)c2SCCO)CC1` [Compound 146, 2-(((1s,4s)-4-((5-(2-Hydroxyethylthio)-3,4-diphenyl-1H-pyrazol-1-yl)methyl)cyclohexyl)methoxy)acetic Acid] had a half-inhibitory concentration (IC50) in test [3] of 70 nM.

As for `N#CCSc1c(-c2ccccc2)c(-c2ccccc2)nn1C[C@H]1CC[C@@H](COCC(=O)O)CC1` [Compound 184, 2-(((1s,4s)-4-((5-(Cyanomethylthio)-3,4-diphenyl-1H-pyrazol-1-yl)methyl)cyclohexyl)methoxy)acetic Acid], the IC50 in test [3] was found to be 20 nM. In test [2], the concentration giving a half-maximal response (EC50) was 11 nM. With `COc1cccc(-c2c(-c3ccccc3)nn(C[C@H]3CC[C@@H](COCC(=O)O)CC3)c2SCCO)c1` [Compound 198, 2-(((1s,4s)-4-((5-(2-Hydroxyethylthio)-4-(3-methoxyphenyl)-3-phenyl-1H-pyrazol-1-yl)methyl)cyclohexyl)methoxy)acetic Acid], the EC50 in test [2] amounted to 2 nM.

As a reminder, the EC50 is the concentration needed to bring the measured effect to its halfway point. A word on the IC50: it is the point on the concentration scale where inhibition reaches its midpoint.
